Measurements as given in the supplement of paper PMC10307832.

Tests used:
Assay in all cases: relative viability (nuclei count vs DMSO), 5 days (fraction); higher = more cells survive
Vorinostat + Alpelisib = compound: O=C(CCCCCCC(=O)Nc1ccccc1)NO [Vorinostat] + Cc1nc(NC(=O)N2CCC[C@H]2C(N)=O)sc1-c1ccnc(C(C)(C)C(F)(F)F)c1 [Alpelisib] (partner 2 µM)
In short: (§1)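 Medians of duplicate plates are given as relative viability. That measure is the nuclei count in treated wells divided by the count in vehicle wells. Counts were taken on 4× images of lung cancer cell lines in 1536-well plates, 5 days after pin-tool dosing the day after seeding with one drug alone or a fixed anchor-drug dose plus five library-drug doses (not always all listed) in √10 steps.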

Vorinostat + OSI-027 = compound: O=C(CCCCCCC(=O)Nc1ccccc1)NO [Vorinostat] + COc1cccc2cc(-c3nc([C@H]4CC[C@H](C(=O)O)CC4)n4ncnc(N)c34)[nH]c12 [OSI-027] (partner 0.5 µM)
In short: as §1

Vorinostat + Foretinib = compound: O=C(CCCCCCC(=O)Nc1ccccc1)NO [Vorinostat] + COc1cc2c(Oc3ccc(NC(=O)C4(C(=O)Nc5ccc(F)cc5)CC4)cc3F)ccnc2cc1OCCCN1CCOCC1 [Foretinib] (partner 0.25 µM)
In short: as §1

Vorinostat + Navitoclax = compound: O=C(CCCCCCC(=O)Nc1ccccc1)NO [Vorinostat] + CC1(C)CCC(c2ccc(Cl)cc2)=C(CN2CCN(c3ccc(C(=O)NS(=O)(=O)c4ccc(N[C@H](CCN5CCOCC5)CSc5ccccc5)c(S(=O)(=O)C(F)(F)F)c4)cc3)CC2)C1 [Navitoclax] (partner 0.5 µM)
In short: as §1

Vorinostat + Olaparib = compound: O=C(CCCCCCC(=O)Nc1ccccc1)NO [Vorinostat] + O=C(c1cc(Cc2n[nH]c(=O)c3ccccc23)ccc1F)N1CCN(C(=O)C2CC2)CC1 [Olaparib] (partner 8 µM)
In short: as §1

Row | Cell Line | relative viability (Vorinostat + Alpelisib; first compound 0.253 µM) | relative viability (Vorinostat + Alpelisib; first compound 0.8 µM) | relative viability (Vorinostat + Alpelisib; first compound 2.53 µM) | relative viability (Vorinostat + Alpelisib; first compound 8 µM) | relative viability (Vorinostat + OSI-027; first compound 0.253 µM) | relative viability (Vorinostat + OSI-027; first compound 0.8 µM) | relative viability (Vorinostat + OSI-027; first compound 2.53 µM) | relative viability (Vorinostat + OSI-027; first compound 8 µM) | relative viability (Vorinostat + Foretinib; first compound 0.253 µM) | relative viability (Vorinostat + Foretinib; first compound 0.8 µM) | relative viability (Vorinostat + Foretinib; first compound 2.53 µM) | relative viability (Vorinostat + Foretinib; first compound 8 µM) | relative viability (Vorinostat + Navitoclax; first compound 0.253 µM) | relative viability (Vorinostat + Navitoclax; first compound 0.8 µM) | relative viability (Vorinostat + Navitoclax; first compound 2.53 µM) | relative viability (Vorinostat + Navitoclax; first compound 8 µM) | relative viability (Vorinostat + Olaparib; first compound 0.253 µM) | relative viability (Vorinostat + Olaparib; first compound 0.8 µM) | relative viability (Vorinostat + Olaparib; first compound 2.53 µM) | relative viability (Vorinostat + Olaparib; first compound 8 µM)
1 | RERF-LC-KJ | 0.862 | 0.898 | 0.457 | 0.234 | 0.56 | 0.52 | 0.238 | 0.256 | 1 | 0.791 | 0.743 | 0.248 | 1.25 | 0.754 | 0.251 | 0.291 | 0.826 | 0.715 | 0.228 | 0.266
2 | 201T | 0.965 | 0.982 | 0.751 | 0.309 | 0.837 | 0.756 | 0.322 | 0.118 | 1.25 | 0.983 | 0.511 | 0.165 | 1.24 | 1.25 | 1.2 | 0.472 | 0.852 | 0.814 | 0.523 | 0.255
3 | NCI-H2085 | 0.982 | 0.947 | 0.514 | 0.255 | 0.722 | 0.463 | 0.415 | 0.205 | 0.968 | 0.665 | 0.468 | 0.228 | 1.18 | 1.02 | 0.643 | 0.269 | 0.803 | 0.79 | 0.442 | 0.219
4 | H3255 | 0.874 | 0.714 | 0.414 | 0.209 | 0.669 | 0.694 | 0.478 | 0.289 | 0.859 | 0.868 | 0.812 | 0.223 | 0.595 | 0.598 | 0.2 | 0.0872 | 0.588 | 0.52 | 0.326 | 0.222
5 | A-427 | 1.1 | 1.1 | 0.889 | 0.146 | 0.535 | 0.281 | 0.226 | 0.105 | 1.21 | 1.13 | 0.561 | 0.191 | 1.06 | 0.906 | 0.812 | 0.171 | 0.71 | 0.789 | 0.468 | 0.21
6 | NCI-H1944 | 0.849 | 0.566 | 0.409 | 0.151 | 0.413 | 0.287 | 0.226 | 0.165 | 0.832 | 0.594 | 0.321 | 0.142 | 1.07 | 0.945 | 0.731 | 0.226 | 0.367 | 0.33 | 0.166 | 0.114
7 | NCI-H520 | 1.02 | 0.588 | 0.487 | 0.139 | 0.361 | 0.265 | 0.204 | 0.217 | 0.965 | 0.791 | 0.555 | 0.179 | 1.17 | 0.845 | 0.256 | 0.162 | 0.299 | 0.264 | 0.184 | 0.116
8 | NCI-H1437 | 0.858 | 0.738 | 0.152 | 0.104 | 0.934 | 0.467 | 0.197 | 0.146 | 1.25 | 1.22 | 0.546 | 0.171 | 1.11 | 0.908 | 0.166 | 0.118 | 0.625 | 0.466 | 0.199 | 0.16
9 | NCI-H2126 | 0.733 | 0.653 | 0.365 | 0.199 | 0.761 | 0.572 | 0.506 | 0.209 | 1.14 | 0.968 | 0.365 | 0.235 | 0.834 | 0.756 | 0.489 | 0.211 | 0.885 | 0.905 | 0.391 | 0.196
10 | NCI-H1993 | 0.737 | 0.691 | 0.562 | 0.522 | 0.53 | 0.63 | 0.568 | 0.525 | 0.84 | 0.801 | 0.747 | 0.494 | 1 | 0.998 | 0.608 | 0.438 | 0.919 | 1.02 | 0.556 | 0.383
11 | NCI-H460 | 0.609 | 0.351 | 0.0248 | 0.0089 | 0.821 | 0.484 | 0.0397 | 0.0148 | 1.09 | 0.927 | 0.0567 | 0.0329 | 1.26 | 0.913 | 0.0765 | 0.0108 | 0.396 | 0.175 | 0.064 | 0.0336
12 | NCI-H838 | 1.23 | 1.1 | 0.605 | 0.185 | 0.531 | 0.508 | 0.298 | 0.137 | 1.33 | 1.05 | 0.51 | 0.173 | 1.34 | 1.15 | 0.395 | 0.195 | 0.87 | 0.785 | 0.222 | 0.153
13 | EKVX | 0.992 | 0.951 | 0.4 | 0.14 | 0.623 | 0.659 | 0.39 | 0.132 | 0.859 | 0.931 | 0.714 | 0.138 | 0.955 | 1.13 | 0.588 | 0.143 | 1.02 | 0.833 | 0.335 | 0.15
14 | HCC-78 | 0.346 | 0.208 | 0.114 | 0.099 | 0.346 | 0.32 | 0.224 | 0.234 | 0.683 | 0.448 | 0.221 | 0.221 | 0.711 | 0.324 | 0.15 | 0.116 | 0.778 | 0.615 | 0.221 | 0.201
15 | NCI-H1355 | 1.1 | 0.691 | 0.321 | 0.145 | 0.442 | 0.309 | 0.228 | 0.164 | 1.05 | 1.01 | 0.562 | 0.156 | 1.05 | 0.876 | 0.506 | 0.166 | 0.797 | 0.565 | 0.211 | 0.128
16 | NCI-H596 | 0.871 | 0.482 | 0.278 | 0.248 | 0.843 | 0.36 | 0.637 | 0.293 | 0.847 | 0.715 | 0.53 | 0.22 | 0.943 | 0.942 | 0.279 | 0.145 | 0.725 | 0.512 | 0.326 | 0.204
